Key:
Assay type in all cases: biochemical
[1] = target: T1, human Axl (Homo sapiens, UniProt P30530); assay: Kinase enzymatic activity assay (33P-radiolabeled phosphate transfer), Axl; details: recombinant human Axl (473-end), poly(4:1 glu:tyr) substrate, 30 minutes
T1 construct: GST (N); made in house; host or cells: Sf9 insect cells (baculovirus)
T1 sequence (P30530 473-894 limits assumed): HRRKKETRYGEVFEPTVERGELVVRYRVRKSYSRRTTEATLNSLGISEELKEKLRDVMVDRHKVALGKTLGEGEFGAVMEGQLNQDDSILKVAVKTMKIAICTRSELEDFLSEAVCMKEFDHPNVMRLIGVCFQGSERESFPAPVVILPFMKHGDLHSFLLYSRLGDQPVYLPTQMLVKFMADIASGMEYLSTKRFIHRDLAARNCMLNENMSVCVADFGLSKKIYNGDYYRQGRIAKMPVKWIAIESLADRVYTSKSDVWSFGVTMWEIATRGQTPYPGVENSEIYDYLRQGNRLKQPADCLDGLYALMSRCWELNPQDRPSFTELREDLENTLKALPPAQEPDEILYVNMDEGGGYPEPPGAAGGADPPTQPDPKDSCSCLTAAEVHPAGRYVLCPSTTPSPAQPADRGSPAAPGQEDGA
Summary of the method: (§1)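 GST-tagged human Tyro3 (455-end), Axl (473-end) and Mer (578-872) from Sf9 cells, with poly(Glu:Tyr) 4:1 substrate, in MOPS pH 7.2 buffer with MgCl2. [33P]-ATP added from a 250 µM cocktail; reaction 30 min at room temperature, filter-captured counts, duplicates. IC50 derived from % inhibition over a compound serial dilution.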

[2] = target: T2, human Mer (Homo sapiens, UniProt Q12866); assay: Kinase enzymatic activity assay (33P-radiolabeled phosphate transfer), Mer; details: recombinant human Mer (578-872), poly(4:1 glu:tyr) substrate, 30 minutes
T2 construct: GST (N); made in house; host or cells: Sf9 insect cells (baculovirus)
T2 sequence (Q12866 578-872): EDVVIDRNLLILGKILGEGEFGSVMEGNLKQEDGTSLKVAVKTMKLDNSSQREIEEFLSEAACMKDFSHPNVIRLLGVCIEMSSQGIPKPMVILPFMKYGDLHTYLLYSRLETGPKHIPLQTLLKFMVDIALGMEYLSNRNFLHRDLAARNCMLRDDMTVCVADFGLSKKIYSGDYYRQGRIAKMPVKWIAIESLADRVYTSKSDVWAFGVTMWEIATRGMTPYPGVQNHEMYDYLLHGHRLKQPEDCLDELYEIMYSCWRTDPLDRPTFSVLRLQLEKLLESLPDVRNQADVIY
Summary of the method: as §1

[3] = target: T3, human Tyro3 (Homo sapiens, UniProt Q06418); assay: Kinase enzymatic activity assay (33P-radiolabeled phosphate transfer), Tyro3; details: recombinant human Tyro3 (455-end), poly(4:1 glu:tyr) substrate, 30 minutes
T3 construct: GST (N); made in house; host or cells: Sf9 insect cells (baculovirus)
T3 sequence (Q06418 455-890 limits assumed): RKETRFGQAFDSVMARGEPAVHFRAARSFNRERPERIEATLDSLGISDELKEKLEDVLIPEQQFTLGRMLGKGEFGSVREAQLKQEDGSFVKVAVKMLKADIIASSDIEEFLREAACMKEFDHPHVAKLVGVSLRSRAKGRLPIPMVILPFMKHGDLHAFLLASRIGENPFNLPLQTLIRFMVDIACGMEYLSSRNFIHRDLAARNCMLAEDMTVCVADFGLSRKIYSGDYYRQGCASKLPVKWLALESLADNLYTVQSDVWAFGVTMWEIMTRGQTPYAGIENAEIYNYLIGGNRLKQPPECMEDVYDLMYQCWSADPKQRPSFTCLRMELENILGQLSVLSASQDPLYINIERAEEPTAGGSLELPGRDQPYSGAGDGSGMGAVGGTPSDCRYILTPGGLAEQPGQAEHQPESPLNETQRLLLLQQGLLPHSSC
Summary of the method: as §1

| Structure (SMILES) | IC50 [1] [nM] | IC50 [2] [nM] | IC50 [3] [nM] |
| --- | --- | --- | --- |
| Cc1csc(Sc2ncnc3cc(OCC4CCN(C)CC4)cc(OC4CCOCC4)c23)n1 [Example 2.51, 4-methyl-2-((7-((1-methylpiperidin-4-yl)methoxy)-5-((tetrahydro-2H-pyran-4-yl)oxy)quinazolin-4-yl)thio)thiazole] | < 500 | 1000 to 10000 | < 500 |
| OC[C@@H](O)COc1cc(OC2CCOCC2)c2c(Oc3ccc(F)cc3Cl)ncnc2c1 [Example 5, (R)-3-((4-(2-chloro-4-fluorophenoxy)-5-((tetrahydro-2H-pyran-4-yl)oxy)quinazolin-7-yl)oxy)propane-1,2-diol] | 1000 to 10000 | 500 to 1000 | 500 to 1000 |
| CN(C)CCOCCOc1cc(OC2CCOCC2)c2c(Nc3nc(C(F)(F)F)cs3)ncnc2c1 [Example 2.56, N-(7-(2-(2-(dimethylamino)ethoxy)ethoxy)-5-((tetrahydro-2H-pyran-4-yl)oxy)quinazolin-4-yl)-4-(trifluoromethyl)thiazol-2-amine] | < 500 | 1000 to 10000 | > 10000 |
| COCCOc1cc(OCCN2CCN(C)CC2)cc2ncnc(Sc3ccc(Cl)cc3)c12 [Example 4, 4-((4-chlorophenyl)thio)-5-(2-methoxyethoxy)-7-(2-(4-methylpiperazin-1-yl)ethoxy)quinazoline] | > 10000 | > 10000 | 1000 to 10000 |
| CN(C)CCCOc1cc(OC2CCOCC2)c2c(Oc3ccc(F)cc3Cl)ncnc2c1 [Example 2.62, 3-((4-(2-chloro-4-fluorophenoxy)-5-((tetrahydro-2H-pyran-4-yl)oxy)quinazolin-7-yl)oxy)-N,N-dimethylpropan-1-amine] | 1000 to 10000 | < 500 | < 500 |
| CN1CCC(COc2cc(OC3CCOCC3)c3c(Sc4nncs4)ncnc3c2)CC1 [Example 2.47, 2-((7-((1-methylpiperidin-4-yl)methoxy)-5-((tetrahydro-2H-pyran-4-yl)oxy)quinazolin-4-yl)thio)-1,3,4-thiadiazole] | < 500 | 1000 to 10000 | 1000 to 10000 |
| CN1CCC(COc2cc(OC3CCOCC3)c3c(Nc4nncs4)ncnc3c2)CC1 [Example 2.38, N-(7-((1-methylpiperidin-4-yl)methoxy)-5-((tetrahydro-2H-pyran-4-yl)oxy)quinazolin-4-yl)-1,3,4-thiadiazol-2-amine] | < 500 | 500 to 1000 | 1000 to 10000 |
| COc1cc(OCCCN2CCOCC2)cc2ncnc(Oc3ccc(F)cc3Cl)c12 [Example 2.17, 4-(3-((4-(2-chloro-4-fluorophenoxy)-5-methoxyquinazolin-7-yl)oxy)propyl)morpholine] | 1000 to 10000 | 1000 to 10000 | < 500 |
| FC(F)(F)c1nnc(Nc2ncnc3cc(OCCCN4CCOCC4)cc(OC4CCOCC4)c23)s1 [Example 2.22, N-(7-(3-morpholinopropoxy)-5-((tetrahydro-2H-pyran-4-yl)oxy)quinazolin-4-yl)-5-(trifluoromethyl)-1,3,4-thiadiazol-2-amine] | 1000 to 10000 | > 10000 | > 10000 |
| CN1CCC(COc2cc(OC3CCOCC3)c3c(Sc4nc(C(F)(F)F)cs4)ncnc3c2)CC1 [Example 2.50, 2-((7-((1-methylpiperidin-4-yl)methoxy)-5-((tetrahydro-2H-pyran-4-yl)oxy)quinazolin-4-yl)thio)-4-(trifluoromethyl)thiazole] | 500 to 1000 | 1000 to 10000 | > 10000 |
| COc1cc(N2CCOCC2)cc2ncnc(Nc3nc(C(F)(F)F)cs3)c12 [Example 2.24, N-(5-methoxy-7-morpholinoquinazolin-4-yl)-4-(trifluoromethyl)thiazol-2-amine] | 1000 to 10000 | > 10000 | > 10000 |
